This assay concerns the target ALK2 (Homo sapiens (Human), UniProt Q04771). The assay can be described thus: ALK2 inhibition, LanthaScreen Eu Kinase Binding Assay (ThermoFisher Scientific / Life Technologies). Conditions: read-out: Measured Ki (IC50) Value for Compounds: IC50. The procedure:
Biochemical assays to measure the inhibitory effects of the compounds were performed by ThermoFisher Scientific (Life Technologies). ALK2 inhibition was tested using LanthaScreen™ Eu Kinase Binding Assay screening protocol.
Background: In TR-FRET formats the signal depends on donor and acceptor labels being close together.

ALK2, sequence (Q04771 21-509): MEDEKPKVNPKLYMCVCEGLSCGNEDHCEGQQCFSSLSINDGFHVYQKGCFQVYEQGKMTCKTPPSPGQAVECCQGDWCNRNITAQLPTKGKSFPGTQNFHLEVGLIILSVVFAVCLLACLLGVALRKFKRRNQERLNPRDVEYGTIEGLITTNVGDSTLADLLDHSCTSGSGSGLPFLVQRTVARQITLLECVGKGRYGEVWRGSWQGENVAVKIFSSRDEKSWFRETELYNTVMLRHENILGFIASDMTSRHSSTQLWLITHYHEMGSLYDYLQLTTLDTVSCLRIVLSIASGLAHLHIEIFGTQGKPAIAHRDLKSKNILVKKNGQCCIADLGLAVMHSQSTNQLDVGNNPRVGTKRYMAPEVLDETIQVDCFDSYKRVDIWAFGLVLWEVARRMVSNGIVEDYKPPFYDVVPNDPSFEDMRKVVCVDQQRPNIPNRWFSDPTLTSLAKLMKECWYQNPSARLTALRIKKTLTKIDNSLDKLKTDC

On to `COc1cc(-n2cnc(Nc3nc(N4CCC[C@H]4C(N)=O)c4sccc4n3)c2)cc(OC)c1OC` [Compound 139b, (S)-1-(2-((1-(3,4,5-trimethoxyphenyl)-1H-imidazol-4-yl)amino)thieno[3,2-d]pyrimidin-4-yl)pyrrolidine-2-carboxamide], for which the IC50 (commonly the point on the concentration scale where inhibition reaches its midpoint) was 100 to 1000 nM.

For the molecule `COc1cc(-n2cnc(Nc3nc(N4CCC[C@H]4CO)nn4c(C(=O)N5CCCCC5)ccc34)c2)cc(OC)c1OC` [Compound 410e, (S)-(2-(2-(hydroxymethyl)pyrrolidin-1-yl)-4-((1-(3,4,5-trimethoxyphenyl)-1H-imidazol-4-yl)amino)pyrrolo[2,1-f][1,2,4]triazin-7-yl)(piperidin-1-yl)methanone], the 50% inhibitory concentration (IC50) was less than 100 nM. Next, `OC[C@@H]1CCCN1c1nc(Nc2cc(-c3ccccc3)[nH]n2)nc2ccoc12` [Compound 354b, (S)-(1-(2-((5-phenyl-1H-pyrazol-3-yl)amino)furo[3,2-d]pyrimidin-4-yl)pyrrolidin-2-yl)methanol]: greater than 1000 nM. `c1ccc(C2CCCN2c2nc(Nc3cn(C4CCCCC4)cn3)c3cccn3n2)nc1` (stereo not shown) [Compound 29a, N-(1-cyclohexyl-1H-imidazol-4-yl)-2-(2-(pyridin-2-yl)pyrrolidin-1-yl)pyrrolo[2,1-f][1,2,4]triazin-4-amine]: the half-inhibitory concentration (IC50) lay in the range of 100 to 1000 nM.

`COc1cc(-n2cnc(Nc3nc(N4CCC[C@H]4CO)nc4c3ccn4S(=O)(=O)c3ccc(C)cc3)c2)cc(OC)c1OC` [Compound 141c, (S)-(1-(7-tosyl-4-((1-(3,4,5-trimethoxyphenyl)-1H-imidazol-4-yl)amino)-7H-pyrrolo[2,3-d]pyrimidin-2-yl)pyrrolidin-2-yl)methanol]: the concentration for half-maximal inhibition (IC50) was less than 100 nM. Next, `Cn1cnc(Nc2nc(N3CCC[C@H]3c3ccccc3)nn3cccc23)c1` [Compound 15a, (S)—N-(1-methyl-1H-imidazol-4-yl)-2-(2-phenylpyrrolidin-1-yl)pyrrolo[2,1-f][1,2,4]triazin-4-amine]: less than 100 nM. With `COc1cc(-n2cnc(Nc3ncc4ccccc4n3)c2)cc(OC)c1OC` [Compound 198b, N-(1-(3,4,5-trimethoxyphenyl)-1H-imidazol-4-yl)quinazolin-2-amine], the IC50 is 100 to 1000 nM.

For `COc1cc(-n2cnc(Nc3nc(N4CCC[C@H]4CO)c4c(C)nn([C@H]5C[C@H](N)C5)c4n3)c2)cc(OC)c1OC` [Compound 445c, ((S)-1-(1-((trans)-3-aminocyclobutyl)-3-methyl-6-((1-(3,4,5-trimethoxyphenyl)-1H-imidazol-4-yl)amino)-1H-pyrazolo[3,4-d]pyrimidin-4-yl)pyrrolidin-2-yl)methanol], the 50% inhibitory concentration (IC50) is less than 100 nM. For `COc1cc(-n2cnc(Nc3nc4c(c(N5CCC[C@@H]5CO)n3)CCC4)c2)cc(OC)c1OC` [Compound 272b, (R)-(1-(2-((1-(3,4,5-trimethoxyphenyl)-1H-imidazol-4-yl)amino)-6,7-dihydro-5H-cyclopenta[d]pyrimidin-4-yl)pyrrolidin-2-yl)methanol] the value was less than 100 nM; for `COc1cc(-n2cnc(Nc3nc4c(c(N5CCC[C@@H]5CO)n3)CN(C(=O)OC(C)(C)C)C4)c2)cc(OC)c1OC` [Compound 366b, (R)-tert-butyl 4-(2-(hydroxymethyl)pyrrolidin-1-yl)-2-(1-(3,4,5-trimethoxyphenyl)-1H-imidazol-4-ylamino)-5H-pyrrolo[3,4-d]pyrimidine-6(7H)-carboxylate], less than 100 nM; for `COc1cc(-n2cnc(Nc3nc(N4[C@H](CO)C[C@H]5C[C@H]54)c4cccn4n3)c2)cc(OC)c1OC` [Compound 325e, ((1R,3S,5R)-2-(2-((1-(3,4,5-trimethoxyphenyl)-1H-imidazol-4-yl)amino)pyrrolo[2,1-f][1,2,4]triazin-4-yl)-2-azabicyclo[3.1.0]hexan-3-yl)methanol], less than 100 nM. Regarding `COc1cc(-n2cnc(Nc3nc4c(c(N5CCC[C@H]5CO)n3)CN(C(=O)C3CC3)CC4)c2)cc(OC)c1OC` [Compound 239a, (S)-cyclopropyl(4-(2-(hydroxymethyl)pyrrolidin-1-yl)-2-((1-(3,4,5-trimethoxyphenyl)-1H-imidazol-4-yl)amino)-7,8-dihydropyrido[4,3-d]pyrimidin-6(5H)-yl)methanone], the IC50 is less than 100 nM. Next, `OC[C@@H]1CCCN1c1nc(Nc2cn(-c3cccnc3)cn2)c2cccn2n1` [Compound 39c, (S)-(1-(4-((1-(pyridin-3-yl)-1H-imidazol-4-yl)amino)pyrrolo[2,1-f][1,2,4]triazin-2-yl)pyrrolidin-2-yl)methanol]: less than 100 nM. Next, `COc1cc(-n2cnc(Nc3nc(N4C[C@H](O)C[C@H]4CO)c4cccn4n3)c2)cc(OC)c1OC` [Compound 214b, (3R,5S)-5-(hydroxymethyl)-1-(2-((1-(3,4,5-trimethoxyphenyl)-1H-imidazol-4-yl)amino)pyrrolo[2,1-f][1,2,4]triazin-4-yl)pyrrolidin-3-ol]: less than 100 nM. Next, `OC[C@@H]1CCCN1c1nc(Nc2cn(-c3ccnc4ccsc34)cn2)c2cccn2n1` [Compound 443e, (S)-(1-(4-((1-(thieno[3,2-b]pyridin-7-yl)-1H-imidazol-4-yl)amino)pyrrolo[2,1-f][1,2,4]triazin-2-yl)pyrrolidin-2-yl)methanol]: less than 100 nM; `COc1cc(-n2cnc(Nc3nc(N4CCC[C@H]4CO)nc4sc(CN5CCC(O)CC5)cc34)c2)cc(OC)c1OC` [Compound 102b, (S)-1-((2-(2-(hydroxymethyl)pyrrolidin-1-yl)-4-((1-(3,4,5-trimethoxyphenyl)-1H-imidazol-4-yl)amino)thieno[2,3-d]pyrimidin-6-yl)methyl)piperidin-4-ol]: less than 100 nM; `COc1cc(-n2cnc(Nc3nc(N4CCC[C@@H]4C(N)=O)nc4c3CCC4)c2)cc(OC)c1OC` [Compound 291a, (R)-1-(4-((1-(3,4,5-trimethoxyphenyl)-1H-imidazol-4-yl)amino)-6,7-dihydro-5H-cyclopenta[d]pyrimidin-2-yl)pyrrolidine-2-carboxamide]: less than 100 nM. With `COc1cc(-n2cnc(Nc3nc(N4CCCC4)nc4scnc34)c2)cc(OC)c1OC` [Compound 197a, 5-(pyrrolidin-1-yl)-N-(1-(3,4,5-trimethoxyphenyl)-1H-imidazol-4-yl)thiazolo[5,4-d]pyrimidin-7-amine], the concentration for half-maximal inhibition (IC50) was less than 100 nM. As to `COc1cc(-n2cnc(Nc3nc(N4CCC[C@H]4C(N)=O)c4cccc(OC(C)C)c4n3)c2)cc(OC)c1OC` [Compound 205b, (S)-1-(8-isopropoxy-2-((1-(3,4,5-trimethoxyphenyl)-1H-imidazol-4-yl)amino)quinazolin-4-yl)pyrrolidine-2-carboxamide], the IC50 is 100 to 1000 nM. Next, `COc1cc(-n2cnc(Nc3nc(N4CCC[C@H]4CO)c4c(C)nn(C5CCCCC5)c4n3)c2)cc(OC)c1OC` [Compound 439c, (S)-(1-(1-cyclohexyl-3-methyl-6-((1-(3,4,5-trimethoxyphenyl)-1H-imidazol-4-yl)amino)-1H-pyrazolo[3,4-d]pyrimidin-4-yl)pyrrolidin-2-yl)methanol]: less than 100 nM; `COc1cc(-n2cnc(Nc3nc(N4CCC[C@H]4CO)nc4c3CCN(C(=O)OC(C)(C)C)C4)c2)cc(OC)c1OC` [Compound 183b, (S)-tert-butyl 2-(2-(hydroxymethyl)pyrrolidin-1-yl)-4-((1-(3,4,5-trimethoxyphenyl)-1H-imidazol-4-yl)amino)-5,6-dihydropyrido[3,4-d]pyrimidine-7(8H)-carboxylate]: less than 100 nM; `COc1cc(-n2cnc(Nc3nc(N4CCC[C@H]4C(N)=O)nc4sc(CN5CCOCC5)cc34)c2)cc(OC)c1OC` [Compound 407b, (S)-1-(6-(morpholinomethyl)-4-((1-(3,4,5-trimethoxyphenyl)-1H-imidazol-4-yl)amino)thieno[2,3-d]pyrimidin-2-yl)pyrrolidine-2-carboxamide]: less than 100 nM. Next, `COc1cc(-n2cnc(Nc3nc(N4CCC[C@H]4CO)nc4[nH]ncc34)c2)cc(OC)c1OC` [Compound 329a, (S)-(1-(4-((1-(3,4,5-trimethoxyphenyl)-1H-imidazol-4-yl)amino)-1H-pyrazolo[3,4-d]pyrimidin-6-yl)pyrrolidin-2-yl)methanol]: less than 100 nM; `COc1cc(-n2cnc(Nc3nc4c(c(N5CCC[C@H]5CO)n3)CCN(Cc3ccc(C#N)cc3)C4)c2)cc(OC)c1OC` [Compound 219a, (S)-4-((4-(2-(hydroxymethyl)pyrrolidin-1-yl)-2-((1-(3,4,5-trimethoxyphenyl)-1H-imidazol-4-yl)amino)-5,6-dihydropyrido[3,4-d]pyrimidin-7(8H)-yl)methyl)benzonitrile]: less than 100 nM; `COc1cc(-n2cnc(Nc3nc(N4CCC[C@H]4CO)c4c(C)nn(CC5CCCCC5)c4n3)c2)cc(OC)c1OC` [Compound 438c, (S)-(1-(1-(cyclohexylmethyl)-3-methyl-6-((1-(3,4,5-trimethoxyphenyl)-1H-imidazol-4-yl)amino)-1H-pyrazolo[3,4-d]pyrimidin-4-yl)pyrrolidin-2-yl)methanol]: less than 100 nM. For `COc1cc(-n2cnc(Nc3nc(N4CCC[C@H]4C(N)=O)nc4cnn(C)c34)c2)cc(OC)c1OC` [Compound 253c, (S)-1-(1-methyl-7-((1-(3,4,5-trimethoxyphenyl)-1H-imidazol-4-yl)amino)-1H-pyrazolo[4,3-d]pyrimidin-5-yl)pyrrolidine-2-carboxamide] the value was greater than 1000 nM. Take `COc1cc(-n2cnc(Nc3nc4c(c(N5CCC[C@H]5CO)n3)COCC4)c2)cc(OC)c1OC` [Compound 343b, (S)-(1-(2-((1-(3,4,5-trimethoxyphenyl)-1H-imidazol-4-yl)amino)-7,8-dihydro-5H-pyrano[4,3-d]pyrimidin-4-yl)pyrrolidin-2-yl)methanol]: the IC50 was less than 100 nM. For `OC[C@@H]1CCCN1c1nc(Nc2cn(-c3ccc4c(c3)OCCO4)cn2)c2cccn2n1` [Compound 423e, (S)-(1-(4-((1-(2,3-dihydrobenzo[b][1,4]dioxin-6-yl)-1H-imidazol-4-yl)amino)pyrrolo[2,1-f][1,2,4]triazin-2-yl)pyrrolidin-2-yl)methanol] the value was 100 to 1000 nM.

Values taken from US11661426B2, “Imidazole-containing inhibitors of ALK2 kinase” (BioCryst Pharmaceuticals, Inc., priority 2017, dated 2023).
